These results are taken from patent US12208107B2, “Method and compositions for the treatment of anemia through the inhibition of furin” (Brigham Young University, priority 2016, dated 2025).

Residues, ends and D or L forms follow the SMILES beside them.

Experiment [1] deals with ferroportin in HepG2 cells. The experiment in a line: Ferroportin Western blot, HepG2. It is filed as cell-based, human. The following applies: HepG2, IL-6/BMP-9 10 ng/mL each; ND 15 μM, CMK 25 μM. The protocol: (§1) Cells were seeded at a density of 1.5×10^6 per T25 flask in 5 mL culture medium and allowed to reach 50% confluency. At time 0, the cells received fresh media and were then simultaneously treated with either nelfinavir or darunavir alone, or nelfinavir and darunavir at varying concentrations (2.5/2.5 μM, 5/5 μM and 7.5/7.5 μM) and induced with IL-6 and BMP-9 (10 ng/mL each) for 18 hours. After 18 hours, 2 mL of media were collected, aliquoted and flash frozen for mass spectrometry (MS) analysis. Control groups not being induced with cytokines, are designated as ‘Healthy’.
After treatments, cultured cells were washed with ice-cold PBS and lysed by adding ice-cold RIP A buffer containing 50 mM Tris-HCl (pH 8), 150 mM NaCl, 1% Triton X-100, 0.5% sodium deoxycholate, 0.1% SDS, 5 mM EDTA and IX protease/phosphatase cocktail inhibitor (Thermo Fisher Scientific, Waltham, MA), Cells were scraped off the flask and were further disrupted by passing the solution through a 21 gauge needle. The extracts were then transferred to a microfuge tube and centrifuged for 20 min at 12000 rpm. Protein concentration was determined with a Lowry assay and equal amounts of the resulting protein (30 μg) were separated by 8% SDS-PAGE and then transferred to a nitrocellulose membrane (Bio-Rad). […]
(A western blot detects proteins with antibodies after separation by electrophoresis.)

The target of a further experiment is T1, Recombinant human furin (Homo sapiens, UniProt P09958).
T1 construct: purchased New England BioLabs (Ipswich, MA)
The experiment in a line: In vitro fluorogenic furin activity assay. It is filed as biochemical. The following applies: fluorogenic substrate BOC-Arg-Val-Arg-Arg-AMC, FIG. 9 / FIG. 22. The protocol: Recombinant human furin was purchased from New England BioLabs (Ipswich, MA). Fluorogenic furin convertase substrate BOC-Arg-Val-Arg-Arg-AMC (AMC=7-Amino-4-methylcoumarin) from Enzo Life Sciences (Farmingdale, NY) and HIV aspartyl protease inhibitors (Sigma) were dissolved in DMSO. Protease inhibitory′ drugs were prepared at a. concentration of 10 mg/mL and stored at room temperature. Furin Inhibitor II chloromethylketone was purchased from EMD Millipore (Darmstadt, Germany).
The assay was performed at pH 7.5 in buffer 50 mM HEPES, 1 mM CaCl2, 1 mM β-mercaptoethanol, 0.2 mg/mL BSA. In a total volume of 100 μL, the final concentration per well of substrate enzyme was 10 μM and 1 U/well respectively. All assays were performed at 37° C. in a 96-well fluorometer (BioTek Synergy H4 Hybrid reader) with an excitation wavelength of 345 nm and an emission wavelength of 420 nm.
Inhibitory small molecules were incubated with enzyme for 1 hour at 37° C. prior to addition of substrate to initiate the reaction. All assays were performed in triplicate. Inhibition constants were calculated based on methods previously described (Lineweaver, H. & Burk, D. The Determination of Enzyme Dissociation Constants. J. Am. Chem. Soc. 56, 658-666 (1934)). […]
The molecular docking studies predicted that PIs bind to the catalytic site of furin as well as to a putative allosteric site on furin (FIGS. 7A and 7B). A fluorescence assay was used to monitor furin activity. Furin has substrate specificity for the multi-basic consensus amino-acid sequence of Arg-X-Lys/Arg-Arg (RXRR) at the cleavage site, where X represents a neutral, polar amino acid. Peptide substrates including the furin cleavage sequence having an attached fluorescent tag were used. A fluorescence tag is quenched when it is attached to the peptide, but when furin cleaves the peptide the fluorophore is released and is able to fluoresce. The inhibitory effect of the PIs in this assay can be characterized through a positive control, in which furin actively cleaves substrate without the presence of an inhibitor.

Experiment [2] has as its system hepcidin-25 in Huh7 cell media. In words: Hepcidin-25 quantification in Huh7 cell media by mass spectrometry. It counts as cell-based, human. The settings on record: IL-6/BMP-9 10 ng/mL each, 18 hrs; ND 15 μM (7.5 μM each), CMK 25 μM.
Method: Detection of Hepcidin-25 isoform was completed using an HPLC-MS/MS method with an Eksigent NanoLC HPLC with a Thermo Scientific C-18 reverse-phase column coupled via Thermo Scientific Nanospray ESI soft ionization source to a Thermo Scientific LTQ/Orbitrap XL mass spectrometer (MS). Samples were prepared for MS using an in-house developed enrichment and purification protocol. […]
The mass spectrometer was tuned and calibrated to a pure human recombinant hepcidin-25 solution. […] Peaks with isotopic envelopes corresponding to [M+5H+] and [M+6H+], 651.8 m/z and 543.3 m/z for 2-iodoacetamide, 818.5 m/z and 682.2 m/z for 2-iodo-N-(phenylethyl)-acetamide respectively, were detected in all samples and were not observed in the protocol blank. […] Quantification was completed using in-house developed ion chromatogram extractor software that allowed positive isolation of unfragmented peaks by m/z and chromatographic elution windows for total spectral ion count summation. Samples were intensity normalized to hepcidin-25 detected in healthy culture media for each dataset.
Sample preparation consisted of three phases: 1) ultra-filtration to remove large abundant proteins and media debris; 2) earboxamidomethylation of cysteine residues; and 3) 2-phase extraction of lipid substituents and subsequent concentration by speed-vac. […] Data was recorded at a resolution of 100,000 over the course of a two-hour method. Detected intensities were totaled using in-house developed ion-chromatogram extractor software. […]
The subject of experiment [3] is prohepcidin in Huh7 cell media. The experiment in a line: Prohepcidin secretion into Huh7 cell media. It counts as cell-based, human. The protocol: as §1
For experiment [4], the system named is HAMP gene expression in Huh7 hepatocytes. In words: HAMP gene expression (RT-qPCR), Huh7. It counts as cell-based, human. The following applies: IL-6/BMP-9 induced Huh7, 18 hrs; ND 15 μM, CMK 25 μM.
Method: Cells were seeded at a density of 1.5×10^6 per T25 flask in 5 mL culture medium and allowed to reach 50% confluency. At time 0, the cells received fresh media and were then simultaneously treated with either nelfinavir or darunavir alone, or nelfinavir and darunavir at varying concentrations (2.5/2.5 μM, 5/5 μM and 7.5/7.5 μM) and induced with IL-6 and BMP-9 (10 ng/mL each) for 18 hours. […] Control groups not being induced with cytokines, are designated as ‘Healthy’.
RNA was isolated by washing tissue culture in 1×PBS, before applying QIAzol lysis reagent (Cat #79306). RNA was then purified on RNeasy mini kit columns (Cat #74104) from Qiagen. All samples were treated with Qiagen DNase (Cat #79254). Two micrograms of RNA were used for reverse transcription and subsequent SYBR® Green ROX real time PCR for the genes of interest. Reverse transcription kits (Cat #330401) and SYBR Green real-time PCR master mixes (Cat #330523) were from Qiagen (Louisville, KY). […]
Real time quantitative PCR was performed on an Applied Biosciences StepOne plus instrument and analyzed with StepOne software v2.3. The relative amounts of transcripts from each gene were normalized to reference gene GAPDH and calculated as follows: ΔΔCT=the average ΔCT of sample B−the average ΔCT of sample B, and their fold difference=2−^ΔΔCT.

T1 sequence (P09958 108-794): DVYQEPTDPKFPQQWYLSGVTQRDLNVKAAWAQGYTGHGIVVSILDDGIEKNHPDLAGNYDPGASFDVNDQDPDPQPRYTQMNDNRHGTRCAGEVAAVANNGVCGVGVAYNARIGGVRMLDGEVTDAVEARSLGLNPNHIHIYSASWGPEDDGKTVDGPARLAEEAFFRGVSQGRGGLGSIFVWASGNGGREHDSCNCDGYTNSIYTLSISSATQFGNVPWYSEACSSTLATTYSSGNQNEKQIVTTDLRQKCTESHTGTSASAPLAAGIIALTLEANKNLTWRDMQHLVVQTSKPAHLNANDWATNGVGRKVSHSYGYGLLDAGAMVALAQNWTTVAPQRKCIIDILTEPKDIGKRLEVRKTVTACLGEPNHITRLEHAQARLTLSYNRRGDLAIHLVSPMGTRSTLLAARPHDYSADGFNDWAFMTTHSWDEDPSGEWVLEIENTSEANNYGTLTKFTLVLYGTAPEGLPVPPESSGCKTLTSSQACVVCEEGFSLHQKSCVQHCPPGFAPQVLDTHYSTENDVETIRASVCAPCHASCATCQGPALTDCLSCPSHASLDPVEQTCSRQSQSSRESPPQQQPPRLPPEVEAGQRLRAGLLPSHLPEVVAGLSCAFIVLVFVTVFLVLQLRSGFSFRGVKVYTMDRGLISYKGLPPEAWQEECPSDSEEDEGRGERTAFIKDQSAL

As to `CCCCCCCCCC(=O)N[C@@H](CCCN=C(N)N)C(=O)N[C@H](C(=O)N[C@@H](CCCCN)C(=O)N[C@@H](CCCN=C(N)N)C(=O)CCl)C(C)C` [Dec-RVKR-CMK] (HELM PEPTIDE1{[CCCCCCCCCC(=O)[*:2]].R.V.K.R.[ClC[*:1]]}$$$$V2.0), in experiment [1], the “increase of ferroportin expression compared to IL-6/BMP-9 control” value was determined as 109%. Besides, the “inhibition of furin activity in the drug screen” value at Recombinant human furin was “full inhibition of furin”. Besides, the “hepcidin-25 in media of cytokine-induced cells” value in experiment [2] is “statistically significant drop in mature hepcidin-25 is not observed”. Besides, in experiment [3] (IL-6/BMP-9 10 ng/mL each, 18 hr, ND 7.5 μM each, CMK 25 μM), the “prohepcidin in media of cytokine-induced cells (in words)” value is “significantly raised”. Besides, the “secreted prohepcidin concentration, healthy cell groups” value in experiment [3] (no cytokine induction) is given as “No significant difference”. The HAMP gene expression entry in experiment [4] is recorded as “this phenomenon was not observed”.
